Assay results reported in patent US20060069132A1, “Azolecarboxamide herbicides” (priority 2004, published 2006).

Key:
giant foxtail = experiment: Test A pre-/postemergence herbicide test; assay type: in vivo, Setaria faberi
Procedure, shortened: (§1)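 Sandy loam soil given preemergence directed spray; plants at 2 to 10 cm, one- to two-leaf stage, sprayed to runoff postemergence, compounds in non-phytotoxic solvent with surfactant. Injury rated visually versus untreated controls after about ten greenhouse days, 0 (no effect) to 100 (complete control); dash means not tested.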

johnsongrass = experiment: Test C pre-/postemergence herbicide test; assay type: in vivo, Sorghum halepense
Procedure, shortened: (§2)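 Preemergence: seeds planted and treated with compound in non-phytotoxic solvent with surfactant; postemergence: plants at 2 to 18 cm (1- to 4-leaf stage) sprayed likewise. Kept in greenhouse 12 to 14 days, then visually rated against controls, 0 (no effect) to 100 (complete control).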

large crabgrass = experiment: Test A pre-/postemergence herbicide test; assay type: in vivo, Digitaria sanguinalis
Procedure, shortened: as §1

lambsquarters = experiment: Test C pre-/postemergence herbicide test; assay type: in vivo, Chenopodium album
Procedure, shortened: as §2

woolly cupgrass = experiment: Test C pre-/postemergence herbicide test; assay type: in vivo, Eriochloa villosa
Procedure, shortened: as §2

yellow nutsedge = experiment: Test C pre-/postemergence herbicide test; assay type: in vivo, Cyperus esculentus
Procedure, shortened: as §2

redroot pigweed = experiment: Test A pre-/postemergence herbicide test; assay type: in vivo, Amaranthus retroflexus
Procedure, shortened: as §1

barnyardgrass = experiment: Test C flooded paddy test; assay type: in vivo, Echinochloa crus-galli; settings: for Plant response rating, Barnyardgrass: 500 g ai/ha, visual rating after 12 to 14 days
Procedure, shortened: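 Postemergence sprays applied to plants 2 to 18 cm tall (1- to 4-leaf stage); paddy species grown to 2-leaf stage under flooding. After 12 to 14 days in greenhouse, visual rating versus untreated controls on 0–100 scale (0 no effect, 100 complete control).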

[1] = Postemergence, 500 g ai/ha, 0 to 100 scale, 0 no effect, 100 complete control
[2] = Postemergence, 2000 g ai/ha, 0 to 100 scale, 0 no effect, 100 complete control
[3] = Preemergence, 500 g ai/ha, visual rating, 0 to 100 scale (0 no effect, 100 complete control)
[4] = Preemergence, 2000 g ai/ha, visual rating, 0 to 100 scale (0 no effect, 100 complete control)
[5] = 125 g ai/ha, scale 0 (no effect) to 100 (complete control), visual, 12 to 14 days, preemergence
[6] = Postemergence, 500 g ai/ha, scale 0 to 100
[7] = Postemergence, 250 g ai/ha, scale 0 to 100, 0 no effect, 100 complete control
[8] = Preemergence, 500 g ai/ha, scale 0 to 100, 0 no effect, 100 complete control
[9] = postemergence, 125 g ai/ha, scale 0 to 100
[10] = postemergence, 62 g ai/ha, scale 0 to 100
[11] = 250 g ai/ha, scale 0 to 100 (0 no effect, 100 complete control), visual, 12 to 14 days, preemergence
[12] = 62 g ai/ha, scale 0 to 100 (0 no effect, 100 complete control)
[13] = 125 g ai/ha, scale of 0 to 100, 0 is no effect, 100 is complete control
[14] = 250 g ai/ha, scale of 0 to 100, 0 is no effect, 100 is complete control
[15] = scale 0 to 100 (0 no effect, 100 complete control)
[16] = 62 g ai/ha, preemergence, scale 0 to 100
[17] = 250 g ai/ha, scale 0-100, preemergence
[18] = 500 g ai/ha, scale 0 to 100 (0 no effect, 100 complete control), visual, 12 to 14 days, preemergence

CCn1nc(C(C)(C)C)cc1C(=O)Nc1cccc(C(C)=NO)c1 [Compound 108]
Foxtail, Giant plant response rating (giant foxtail; [1]): 90
Plant response rating, Foxtail, Giant (giant foxtail; [2]): 100
Foxtail, Giant plant response rating (giant foxtail; [3]): 95
Foxtail, Giant plant response rating (giant foxtail; [4]): 100
Plant response rating (0 = no effect, 100 = complete control), Johnsongrass (johnsongrass; 62 g ai/ha, preemergence): 60
Plant response rating, Johnsongrass (johnsongrass; [5]): 100
Johnsongrass plant response rating (johnsongrass; [6]): 90
Plant response rating, Johnsongrass (johnsongrass; [7]): 70
Johnsongrass plant response rating (johnsongrass; [8]): 100
Plant response rating, Johnsongrass (johnsongrass; [9]): 50
Plant response rating, Johnsongrass (johnsongrass; [10]): 20
Crabgrass, Large plant response rating (large crabgrass; [1]): 65
Plant response rating, Crabgrass, Large (large crabgrass; [2]): 85
Crabgrass, Large plant response rating (large crabgrass; [3]): 85
Crabgrass, Large plant response rating (large crabgrass; [4]): 100
Plant response rating (0 = no effect, 100 = complete control), Lambsquarters (lambsquarters; 62 g ai/ha, preemergence): 100
Plant response rating, Lambsquarters (lambsquarters; [5]): 100
Lambsquarters plant response rating (lambsquarters; [6]): 100
Plant response rating, Lambsquarters (lambsquarters; [7]): 100
Lambsquarters plant response rating (lambsquarters; [8]): 100
Plant response rating, Lambsquarters (lambsquarters; [9]): 100
Plant response rating, Lambsquarters (lambsquarters; [10]): 70
Plant response rating (0 = no effect, 100 = complete control), Cupgrass, Woolly (woolly cupgrass; 62 g ai/ha, preemergence): 30
Plant response rating, Cupgrass, Woolly (woolly cupgrass; [5]): 50
Plant response rating, Cupgrass, Woolly (woolly cupgrass; [11]): 50
Cupgrass, Woolly plant response rating (woolly cupgrass; [6]): 40
Plant response rating, Cupgrass, Woolly (woolly cupgrass; [7]): 40
Cupgrass, Woolly plant response rating (woolly cupgrass; [8]): 80
Plant response rating, Cupgrass, Woolly (woolly cupgrass; [9]): 40
Plant response rating, Cupgrass, Woolly (woolly cupgrass; [10]): 20
Plant response rating (0 = no effect, 100 = complete control), Nutsedge, Yellow (yellow nutsedge; 62 g ai/ha, preemergence): 50
Plant response rating, Nutsedge, Yellow (yellow nutsedge; [5]): 70
Nutsedge, Yellow plant response rating (yellow nutsedge; [6]): 30
Plant response rating, Nutsedge, Yellow (yellow nutsedge; [7]): 30
Nutsedge, Yellow plant response rating (yellow nutsedge; [8]): 80
Plant response rating, Nutsedge, Yellow (yellow nutsedge; [9]): 30
Plant response rating, Nutsedge, Yellow (yellow nutsedge; [10]): 20
Pigweed plant response rating (redroot pigweed; [1]): 100
Plant response rating, Pigweed (redroot pigweed; [2]): 100
Pigweed plant response rating (redroot pigweed; [3]): 100
Pigweed plant response rating (redroot pigweed; [4]): 100
Barnyardgrass plant response rating (barnyardgrass; [12]): 30
Barnyardgrass plant response rating (barnyardgrass; [13]): 40
Barnyardgrass plant response rating (barnyardgrass; [14]): 60
Plant response rating, Barnyardgrass (barnyardgrass; [15]): 70

CCNC(=O)c1ccnc(NC(=O)c2cc(C(C)(C)C)nn2CC)c1 [Compound 152]
Plant response rating, Johnsongrass (johnsongrass; [16]): 80
Plant response rating, Johnsongrass (johnsongrass; [5]): 100
Johnsongrass plant response rating (johnsongrass; [8]): 100
Plant response rating, Lambsquarters (lambsquarters; [16]): 100
Plant response rating, Lambsquarters (lambsquarters; [5]): 100
Lambsquarters plant response rating (lambsquarters; [8]): 100
Plant response rating, Cupgrass, Woolly (woolly cupgrass; [16]): 40
Plant response rating, Cupgrass, Woolly (woolly cupgrass; [5]): 50
Plant response rating, Cupgrass, Woolly (woolly cupgrass; [11]): 100
Cupgrass, Woolly plant response rating (woolly cupgrass; [8]): 100
Plant response rating, Nutsedge, Yellow (yellow nutsedge; [16]): 10
Plant response rating, Nutsedge, Yellow (yellow nutsedge; [5]): 30
Nutsedge, Yellow plant response rating (yellow nutsedge; [8]): 70
Barnyardgrass plant response rating (barnyardgrass; [12]): 40
Barnyardgrass plant response rating (barnyardgrass; [13]): 75
Barnyardgrass plant response rating (barnyardgrass; [14]): 75
Plant response rating, Barnyardgrass (barnyardgrass; [15]): 85

Cc1nn(C(C)(C)C)nc1C(=O)Nc1cccc(C(=O)N(C)C)c1 [Compound 391]
Plant response rating, Johnsongrass (johnsongrass; [16]): 100
Plant response rating (0 = no effect, 100 = complete control), Johnsongrass (johnsongrass; 125 g ai/ha, preemergence): 100
Plant response rating, Johnsongrass (johnsongrass; [17]): 100
Plant response rating, Johnsongrass (johnsongrass; [18]): 100
Plant response rating, Lambsquarters (lambsquarters; [16]): 100
Plant response rating (0 = no effect, 100 = complete control), Lambsquarters (lambsquarters; 125 g ai/ha, preemergence): 100
Plant response rating, Lambsquarters (lambsquarters; [17]): 100
Plant response rating, Lambsquarters (lambsquarters; [18]): 100
Plant response rating, Cupgrass, Woolly (woolly cupgrass; [16]): 70
Plant response rating (0 = no effect, 100 = complete control), Cupgrass, Woolly (woolly cupgrass; 125 g ai/ha, preemergence): 75
Plant response rating, Cupgrass, Woolly (woolly cupgrass; [17]): 80
Plant response rating, Cupgrass, Woolly (woolly cupgrass; [18]): 100
Plant response rating, Nutsedge, Yellow (yellow nutsedge; [16]): 5
Plant response rating (0 = no effect, 100 = complete control), Nutsedge, Yellow (yellow nutsedge; 125 g ai/ha, preemergence): 70
Plant response rating, Nutsedge, Yellow (yellow nutsedge; [17]): 90
Plant response rating, Nutsedge, Yellow (yellow nutsedge; [18]): 90
Barnyardgrass plant response rating (barnyardgrass; [12]): 55
Barnyardgrass plant response rating (barnyardgrass; 125 g ai/ha, scale 0 to 100 (0 no effect, 100 complete control)): 85
Barnyardgrass plant response rating (barnyardgrass; [14]): 90
Plant response rating, Barnyardgrass (barnyardgrass; [15]): 95
